Experimental findings from patent US6462055B2, “Alpha-methylbenzyl-containing thiourea inhibitors of herpes viruses containing a phenylenediamine group” (Wyeth, priority 1998, dated 2002) are described below.

The test system of assay [1] is VZV strain Ellen. The experiment in a line: VZV Antiviral (ELISA) Assay in human foreskin fibroblast cells. It is filed as cell-based, varicella-zoster virus. The gist of the method:
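First, fibroblasts are infected at multiplicity below 0.1 and kept overnight. The harvested cell mixture then goes onto compound-containing wells for three days at 37° C. Finally, cells are fixed and viral gpII is measured by fluorogenic ELISA.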
(In general: ELISA stands for enzyme-linked immunosorbent assay.)

Assay [2] concerns HSV-1. Put plainly: HSV Antiviral (ELISA) Assay in Vero cells. It counts as cell-based, herpes simplex virus type 1. To be noted: HSV-1, Vero cells. An outline of the steps: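 Viral replication was quantified by cell-fixed ELISA for HSV glycoprotein D, using a β-galactosidase reporter and fluorogenic umbelliferyl substrate, about 24 h after HSV-1 infection (MOI 0.006) of Vero cells. Compounds, at several concentrations, were added 30 min pre-infection. IC50 was derived from fluorescence relative to the compound-free signal.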

The test system of assay [3] is HCMV recombinant mutant virus (RV145). Put plainly: microbe, parasite or virus in culture. It counts as cell-based, human cytomegalovirus. The gist of the method:
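Human foreskin fibroblasts infected with HCMV RV145 carrying a viral-promoter-driven beta-glucuronidase gene, in presence of compound. At 96 h post-infection, lysates assayed for beta-glucuronidase with colorimetric or fluorogenic glucuronide substrate as replication read-out. IC50 estimated from varying inhibitor amounts.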

Each structure is given as a SMILES string. In brackets after ≈: the same amount, converted by molar mass. Some results are limits rather than exact numbers.

For `O=C(Nc1ccc(NC(=S)Nc2ccc(SC3CCCCC3)c(Cl)c2)cc1)c1ccccc1F` [Example 357], in assay [1], the “IC50 (ug/ml) VZV” value is 40 µg/mL (≈ 77.8 µM) and the “% inhibition 10 ug/ml VZV” value was 44%. Further, the “IC50 (ug/ml) HSV” value in assay [2] is more than 10 µg/mL. Also, the “IC50 ug/ml HCMV” value in assay [3] is 9 µg/mL (≈ 17.5 µM).

As to `CC(NC(=S)Nc1ccc(NC(=O)c2ccccc2F)cc1)c1cc2ccccc2o1` (stereo not drawn) [Example 1002, N-{4-[3-(1-Benzofuran-2-yl-ethyl)-thioureid]-phenyl}-2-fluoro-benzamide], the “IC50 (ug/ml) VZV” value in assay [1] is 0.08 µg/mL (≈ 0.185 µM). Besides, in assay [2], the “IC50 (ug/ml) HSV” value is more than 10 µg/mL. Also, the “IC50 ug/ml HCMV” value in assay [3] was 2.1 µg/mL (≈ 4.84 µM).

On to `CCOC(=O)Nc1ccc(NC(=S)Nc2ccc(NC(=O)c3ccccc3F)cc2)cc1Cl` [Example 399], for which, in assay [1], the “IC50 (ug/ml) VZV” value was more than 10 µg/mL and the “% inhibition 10 ug/ml VZV” value was determined as 59%. Moreover, the “IC50 (ug/ml) HSV” value in assay [2] was more than 10 µg/mL. For the same molecule, the “IC50 ug/ml HCMV” value in assay [3] is 1.5 µg/mL (≈ 3.08 µM).

As to `COc1cc(OC)c(NC(=S)Nc2ccc(NC(=O)c3cccc(F)c3F)cc2)cc1Cl` [Example 186], in assay [1], the “IC50 (ug/ml) VZV” value is more than 10 µg/mL and the “% inhibition 10 ug/ml VZV” value stood at 52%. Also, the “IC50 (ug/ml) HSV” value in assay [2] was determined as 0.2 µg/mL (≈ 0.418 µM). In addition, the “IC50 ug/ml HCMV” value in assay [3] was more than 10 µg/mL.

Turning to `O=C(CN1CCCCCC1)Nc1ccc(NC(=S)Nc2ccc(NC(=O)c3ccccc3F)cc2)cc1Cl` [Example 423], in assay [1], the “IC50 (ug/ml) VZV” value was determined as 0.9 µg/mL (≈ 1.62 µM) and the “% inhibition 10 ug/ml VZV” value came to 87%. Also, the “IC50 (ug/ml) HSV” value in assay [2] was determined as 4 µg/mL (≈ 7.22 µM). Besides, in assay [3], the “IC50 ug/ml HCMV” value worked out at 1 µg/mL (≈ 1.8 µM).

Consider `COc1cc(OC)c(NC(=S)Nc2ccc(NC(=O)c3cccc(OC(F)(F)F)c3)cc2)cc1Cl` [Example 256], for which, in assay [1], the “IC50 (ug/ml) VZV” value was more than 10 µg/mL and the “% inhibition 10 ug/ml VZV” value is reported as 15%. Besides, in assay [2], the “IC50 (ug/ml) HSV” value was 2 µg/mL (≈ 3.8 µM). Also, in assay [3], the “IC50 ug/ml HCMV” value stood at 9 µg/mL (≈ 17.1 µM).

Turning to `Cc1ccccc1C(C)NC(=S)Nc1ccc(NC(=O)c2ccccc2F)cc1` (stereo not drawn) [Example 775], the “IC50 (ug/ml) VZV” value in assay [1] is more than 7.5 µg/mL. Also, the “IC50 (ug/ml) HSV” value in assay [2] is more than 10 µg/mL. The “IC50 ug/ml HCMV” value in assay [3] is 1 µg/mL (≈ 2.45 µM).

`COc1cc(OC)c(NC(=S)Nc2ccc(NC(=O)c3ccccc3F)cc2)cc1Cl` [Example 118]: in assay [1], the “IC50 (ug/ml) VZV” value was more than 10 µg/mL. The “IC50 (ug/ml) HSV” value in assay [2] stood at 0.15 µg/mL (≈ 0.326 µM). Besides, in assay [3], the “IC50 ug/ml HCMV” value turned out to be 3 µg/mL (≈ 6.52 µM).

Consider `CC(NC(=S)Nc1ccc(NC(=O)c2ccccc2F)cc1)c1ccc(S(=O)(=O)N2CCCCC2)cc1` (stereo not drawn) [Example 1009], for which the “IC50 (ug/ml) VZV” value in assay [1] is more than 10 µg/mL. The “IC50 (ug/ml) HSV” value in assay [2] was more than 10 µg/mL. Moreover, the “IC50 ug/ml HCMV” value in assay [3] was more than 10 µg/mL.

As for `N#Cc1cccc(NC(=S)Nc2ccc(NC(=O)c3ccccc3F)cc2)c1` [Example 461], in assay [1], the “IC50 (ug/ml) VZV” value is more than 10 µg/mL and the “% inhibition 10 ug/ml VZV” value is on record as 33%. Further, the “IC50 (ug/ml) HSV” value in assay [2] was more than 10 µg/mL. Moreover, in assay [3], the “IC50 ug/ml HCMV” value was more than 10 µg/mL.

Take `CC(NC(=S)Nc1ccc(NC(=O)c2ccccc2F)cc1)c1cccc(Br)c1` (stereo not drawn) [Example 780]: the “IC50 (ug/ml) VZV” value in assay [1] came to 1.2 µg/mL (≈ 2.54 µM). Moreover, in assay [2], the “IC50 (ug/ml) HSV” value is more than 10 µg/mL. In addition, in assay [3], the “IC50 ug/ml HCMV” value worked out at 1 µg/mL (≈ 2.12 µM).

Consider `CC1CCCCN1CC(=O)Nc1ccc(NC(=S)Nc2ccc(NC(=O)c3ccccc3F)cc2)cc1Cl` (stereo not drawn) [Example 425], for which, in assay [1], the “IC50 (ug/ml) VZV” value is more than 7.5 µg/mL and the “% inhibition 10 ug/ml VZV” value was 103%. Besides, the “IC50 (ug/ml) HSV” value in assay [2] is 3 µg/mL (≈ 5.41 µM). Also, in assay [3], the “IC50 ug/ml HCMV” value came out at 0.5 µg/mL (≈ 0.902 µM).

Regarding `CC(NC(=S)Nc1ccc(NC(=O)c2ccccc2F)cc1)c1cccc(N(C)C)c1` (stereo not drawn) [Example 794], the “IC50 (ug/ml) VZV” value in assay [1] was 0.4 µg/mL (≈ 0.916 µM). Further, the “IC50 (ug/ml) HSV” value in assay [2] was 7 µg/mL (≈ 16 µM). Besides, the “IC50 ug/ml HCMV” value in assay [3] was 6.2 µg/mL (≈ 14.2 µM).

Regarding `CCCCOc1cccc(C(=O)Nc2ccc(NC(=S)Nc3cc(Cl)c(OC)cc3OC)cc2)c1` [Example 219], in assay [1], the “IC50 (ug/ml) VZV” value is more than 10 µg/mL and the “% inhibition 10 ug/ml VZV” value is 30%. Also, the “IC50 (ug/ml) HSV” value in assay [2] is 2.5 µg/mL (≈ 4.86 µM). For the same molecule, the “IC50 ug/ml HCMV” value in assay [3] is more than 10 µg/mL.

`COc1cc(OC)c(NC(=S)Nc2ccc(NC(=O)c3ccccc3OC(C)=O)cc2)cc1Cl` [Example 115]: in assay [1], the “IC50 (ug/ml) VZV” value came out at 4 µg/mL (≈ 8 µM) and the “% inhibition 10 ug/ml VZV” value worked out at 98%. Further, in assay [2], the “IC50 (ug/ml) HSV” value was determined as 4 µg/mL (≈ 8 µM). Moreover, the “IC50 ug/ml HCMV” value in assay [3] was determined as 8 µg/mL (≈ 16 µM).

With `CC(NC(=S)Nc1ccc(NC(=O)c2ccccc2Cl)cc1)c1ccc(F)cc1` (stereo not drawn) [Example 755], in assay [1], the “IC50 (ug/ml) VZV” value was found to be 7 µg/mL (≈ 16.4 µM). For the same molecule, the “IC50 (ug/ml) HSV” value in assay [2] is more than 10 µg/mL. In addition, the “IC50 ug/ml HCMV” value in assay [3] is more than 10 µg/mL.

Take `CC(NC(=S)Nc1ccc(NC(=O)c2ccc(Cl)cc2)cc1)c1ccc(F)cc1` (stereo not drawn) [Example 756]: in assay [1], the “IC50 (ug/ml) VZV” value turned out to be 0.3 µg/mL (≈ 0.701 µM). For the same molecule, the “IC50 (ug/ml) HSV” value in assay [2] was more than 10 µg/mL. In addition, the “IC50 ug/ml HCMV” value in assay [3] is more than 10 µg/mL.

`CCOC(=O)Nc1cccc(C(=O)Nc2ccc(NC(=S)Nc3cc(Cl)c(OC)cc3OC)cc2)c1` [Example 180]: in assay [1], the “IC50 (ug/ml) VZV” value was more than 10 µg/mL and the “% inhibition 10 ug/ml VZV” value is on record as 36%. In addition, in assay [2], the “IC50 (ug/ml) HSV” value came to 1.3 µg/mL (≈ 2.46 µM). In assay [3], the “IC50 ug/ml HCMV” value worked out at 1.5 µg/mL (≈ 2.84 µM).

As for `Nc1c(Br)cc(NC(=S)Nc2ccc(NC(=O)c3ccccc3F)cc2)cc1Br` [Example 519], in assay [1], the “IC50 (ug/ml) VZV” value is more than 10 µg/mL and the “% inhibition 10 ug/ml VZV” value is given as 18%. For the same molecule, the “IC50 (ug/ml) HSV” value in assay [2] was determined as 0.4 µg/mL (≈ 0.743 µM). Moreover, the “IC50 ug/ml HCMV” value in assay [3] was found to be 1.7 µg/mL (≈ 3.16 µM).

Consider `COc1ccc(NC(=S)Nc2ccc(NC(=O)c3ccccc3F)cc2)cc1F` [Example 995, 2-Fluoro-N-{4-[3-(3-fluoro-4-methoxy-phenyl)-thioureido]-phenyl}-benzamide], for which the IC50 in assay [1] (Human alphaherpesvirus 3, Fibroblast, read-out: IC50 (ug/ml) VZV) is more than 10 µg/mL; in assay [2] (Human alphaherpesvirus 1, read-out: IC50 (ug/ml) HSV), more than 10 µg/mL; in assay [3] (Human betaherpesvirus 5, read-out: IC50 ug/ml HCMV, HCMV), more than 10 µg/mL.

On to `CC(O)c1cccc(NC(=S)Nc2ccc(NC(=O)c3ccccc3F)cc2)c1` (stereo not drawn) [Example 448], for which, in assay [1], the “IC50 (ug/ml) VZV” value was more than 10 µg/mL and the “% inhibition 10 ug/ml VZV” value was 0%. In assay [2], the “IC50 (ug/ml) HSV” value is more than 10 µg/mL. The “IC50 ug/ml HCMV” value in assay [3] worked out at 9 µg/mL (≈ 22 µM).

For `Nc1nccc(-c2ccc(NC(=S)Nc3ccc(NC(=O)c4ccccc4F)cc3)cc2Cl)n1` [Example 502], in assay [1], the “IC50 (ug/ml) VZV” value is more than 10 µg/mL and the “% inhibition 10 ug/ml VZV” value worked out at 13%. In addition, in assay [2], the “IC50 (ug/ml) HSV” value is more than 10 µg/mL. Also, in assay [3], the “IC50 ug/ml HCMV” value came to 1.8 µg/mL (≈ 3.65 µM).

`CC(NC(=S)Nc1ccc(NC(=O)c2ccccc2F)cc1)c1cccc(Cl)c1` (stereo not drawn) [Example 779]: the “IC50 (ug/ml) VZV” value in assay [1] is more than 7.5 µg/mL. Also, the “IC50 (ug/ml) HSV” value in assay [2] was more than 10 µg/mL. Besides, in assay [3], the “IC50 ug/ml HCMV” value is 1.2 µg/mL (≈ 2.8 µM).

On to `CC(C)c1cccc(NC(=S)Nc2ccc(NC(=O)c3ccccc3F)cc2)c1` [Example 452], for which, in assay [1], the “IC50 (ug/ml) VZV” value is 1 µg/mL (≈ 2.45 µM) and the “% inhibition 10 ug/ml VZV” value is recorded as 75%. Moreover, the “IC50 (ug/ml) HSV” value in assay [2] is 4 µg/mL (≈ 9.82 µM). Also, the “IC50 ug/ml HCMV” value in assay [3] stood at 2 µg/mL (≈ 4.91 µM).

Turning to `COc1cc(C)c(Cl)cc1NC(=S)Nc1ccc(NC(=O)c2c(F)cccc2F)cc1` [Example 333], in assay [1], the “IC50 (ug/ml) VZV” value came out at 4.5 µg/mL (≈ 9.74 µM) and the “% inhibition 10 ug/ml VZV” value stood at 92%. In assay [2], the “IC50 (ug/ml) HSV” value was found to be 0.04 µg/mL (≈ 0.0866 µM). Further, the “IC50 ug/ml HCMV” value in assay [3] was found to be 2.5 µg/mL (≈ 5.41 µM).
